Measurements: patent publication US11980188B2, “Spiro cyclohexanedione derivates as herbicides” (SYNGENTA PARTICIPATIONS AG, priority 2018, dated 2024)

How the values were obtained:
Lolium perenne (LOLPE) = assay: Glasshouse herbicide test, pre- and post-emergence, percentage damage; assay type: in vivo; conditions: 250 g/h, evaluated after 13 days, percentage damage on five point scale; for LOLPE POST: post-emergence; for LOLPE PRE: pre-emergence
Outline: (§1)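 Damage assessed 13 days after treatment and expressed as a five-point score (5=80-100%; 4=60-79%; 3=40-59%; 2=20-39%; 1=0-19%). Compound applied at 250 g/h as an acetone/water/0.5% Tween 20 spray, pre-emergence (day 1 after sowing) or post-emergence (day 8). Plants kept at 24/16° C., 14 h light, 65% humidity.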

Avena fatua (AVEFA) = assay: as above; assay type: in vivo; conditions: 250 g/h, evaluated after 13 days, percentage damage on five point scale; for AVEFA POST: post-emergence; for AVEFA PRE: pre-emergence
Outline: as §1

[1] = system: Echinochloa crus-galli (ECHCG); assay: as above; assay type: in vivo; conditions: 250 g/h, evaluated after 13 days, percentage damage on five point scale; for ECHCG PRE: pre-emergence
Outline: as §1

[2] = system: Alopecurus myosuroides (ALOMY); assay: as above; assay type: in vivo; conditions: 250 g/h, evaluated after 13 days, percentage damage on five point scale; for ALOMY POST: post-emergence; for ALOMY PRE: pre-emergence
Outline: as §1

Setaria faberi (SETFA) = assay: as above; assay type: in vivo; conditions: 250 g/h, evaluated after 13 days, percentage damage on five point scale; for SETFA POST: post-emergence; for SETFA PRE: pre-emergence
Outline: as §1

LOLPE = assay: Post-emergence comparison with comparator C1 at indicated application rates; assay type: in vivo, Lolium perenne
Protocol: (§2) Seeds of a variety of test species are sown in standard soil in pots (Lolium perenne (LOLPE), Setaria faberi (SETFA), Alopecurus myosuroides (ALOMY), Echinochloa crus-galli (ECHCG), Avena fatua (AVEFA)). After cultivation for one day (pre-emergence) or after 8 days cultivation (post-emergence) under controlled conditions in a glasshouse (at 24/16° C., day/night; 14 hours light; 65% humidity), the plants are sprayed with an aqueous spray solution derived from the formulation of the technical active ingredient in acetone/water (50:50) solution containing 0.5% Tween 20 (polyoxyethelyene sorbitan monolaurate, CAS RN 9005-64-5). Compounds are applied at […]. The test plants are then grown in a glasshouse under controlled conditions in a glasshouse (at 24/16° C., day/night; 14 hours light; 65% humidity) and watered twice daily. After 13 days for pre and post-emergence, the test is evaluated for the percentage damage caused to the plant. The biological activities are shown in the following table on a five point scale (5=80-100%; 4=60-79%; 3=40-59%; 2=20-39%; 1=0-19%).
(§3) Using procedures outlines above, weed species ALOMY, AVEFA & LOLPE are treated post-emergence with compound A4 of the present invention or comparator compound C1 (Compound T-26 from WO2008/110308) at the application rates indicated. The test is evaluated for the percentage damage caused to the plant.

AVEFA = assay: as above; assay type: in vivo, Avena fatua
Protocol: as §2, §3

ALOMY = assay: as above; assay type: in vivo, Alopecurus myosuroides
Protocol: as §2, §3

[3] = system: weed species ALOMY, AVEFA & LOLPE; assay: Post-emergence comparison with comparator C1, overall conclusion; assay type: in vivo; conditions: 63 and 16 g/ha, Table B2
Protocol: as §2, §3

| Structure (SMILES) | LOLPE POST (Lolium perenne (LOLPE)) | LOLPE PRE (Lolium perenne (LOLPE)) | AVEFA POST (Avena fatua (AVEFA)) | AVEFA PRE (Avena fatua (AVEFA)) | ECHCG PRE [1] | ALOMY POST [2] | ALOMY PRE [2] | SETFA POST (Setaria faberi (SETFA)) | SETFA PRE (Setaria faberi (SETFA)) | LOLPE percentage damage (LOLPE; rate 16 g/ha) | LOLPE percentage damage (LOLPE; rate 63 g/ha) | AVEFA percentage damage (AVEFA; rate 16 g/ha) | AVEFA percentage damage (AVEFA; rate 63 g/ha) | ALOMY percentage damage (ALOMY; rate 16 g/ha) | ALOMY percentage damage (ALOMY; rate 63 g/ha) | weed control vis-à-vis prior art compound C1 [3] | ECHCG POST ([1]; post-emergence) |
| --- | --- | --- | --- | --- | --- | --- | --- | --- | --- | --- | --- | --- | --- | --- | --- | --- | --- |
| CC(=O)N1CCC2(CC1)CC(=O)C(c1c(C)cc(-c3ncc(F)cn3)cc1C)C(=O)C2 [Compound A13, 3-acetyl-9-[4-(5-fluoropyrimidin-2-yl)-2,6-dimethyl-phenyl]-3-azaspiro[5.5]undecane-8,10-dione] | 5 (5=80-100%) | 5 (5=80-100%) | 5 (5=80-100%) | 5 (5=80-100%) | 5 (5=80-100%) | 5 (5=80-100%) | 5 (5=80-100%) | 5 (5=80-100%) | 5 (5=80-100%) | 70% | 90% | 90% | 100% | 90% | 100% | improved weed control |  |
| CON1CCC2(CC1)CC(=O)C(c1c(C)cc(C)cc1C)C(=O)C2 [Compound A4] | 5 (5=80-100%) | 5 (5=80-100%) | 5 (5=80-100%) | 5 (5=80-100%) | 5 (5=80-100%) | 5 (5=80-100%) | 5 (5=80-100%) | 5 (5=80-100%) | 5 (5=80-100%) | 70% | 90% | 40% | 90% | 40% | 90% | improved weed control | 5 (5=80-100%) |
